Measurements: patent publication US20200157048A1, “(2E,4E)-5-PHENYL-PENTA-2,4-DIEN-1-ONE DERIVATIVE” (BIOWAY., INC, priority 2018, published 2020)
Entries after “also recorded” stand apart in the source; their conditions may differ.

Legend:
Pparα mRNA = test: qRT-PCR Pparα mRNA level in steatosis-induced Huh-7 cells; assay type: cell-based, Human; settings: steatosis-induced (OA/PA) Huh-7 cells; 10 μM; 24 hours
Experimental: (§1) In Experimental Example 5, the Huh-7 cells were plated in 6 wells at 4×10^5 cells/mL and incubated under an atmosphere containing 5% CO2 at 37° C.
(§2) One day later, the cell density approached about 80 to 90%. The medium was changed to an FBS-free RPMI1640 medium, and incubated under an atmosphere containing 5% CO2 at 37° C. for 24 hours.
(§3) Huh-7 cells of each well, excluding control cells, were pretreated with an OA/PA mixture for one hour to induce steatosis. The control cells were pretreated with 1% FA-free BSA.
(§4) Each well was treated with 10 μM of a test compound, and then the cells were incubated for 24 hours. The control cells and OA/PA-treated cells were treated with DMSO. Cells of a positive control were treated with 10 μM of resveratrol, 10 μM of piperine, and 10 μM of YU2014. The medium was entirely aspirated, and the cells were washed with PBS (phosphate buffered saline, Corning, Manassas, Va., USA) two times.
(§5) Total RNA was extracted using a RNeasy RNA isolation kit (Qiagen, Hilden, Germany).
(§6) 10 μL of β-mercaptoethanol (Sigma-Aldrich) per 1 mL of lysis buffer was added, thereby preparing an RNA lysis buffer. […]
(§7) An RNA concentration was measured at O.D. 260 nm using a nanophotometer N60 (Implen, Munich, Germany). The concentration and purity of RNA were measured at O.D. 260/280 nm and calculated as a ratio. […]
(§8) Quantitative analyses for the genes in Table 3 were performed.

CK2 = biological target: T1, CK2 (Homo sapiens, UniProt P68400); test: CK2 kinase assay (CycLex CK2 kinase assay/inhibitor screening kit); assay type: biochemical; settings: 20 μM
T1 construct: purchased New England Biolabs (Ipswich, Mass., USA)
T1 sequence (P68400 whole entry): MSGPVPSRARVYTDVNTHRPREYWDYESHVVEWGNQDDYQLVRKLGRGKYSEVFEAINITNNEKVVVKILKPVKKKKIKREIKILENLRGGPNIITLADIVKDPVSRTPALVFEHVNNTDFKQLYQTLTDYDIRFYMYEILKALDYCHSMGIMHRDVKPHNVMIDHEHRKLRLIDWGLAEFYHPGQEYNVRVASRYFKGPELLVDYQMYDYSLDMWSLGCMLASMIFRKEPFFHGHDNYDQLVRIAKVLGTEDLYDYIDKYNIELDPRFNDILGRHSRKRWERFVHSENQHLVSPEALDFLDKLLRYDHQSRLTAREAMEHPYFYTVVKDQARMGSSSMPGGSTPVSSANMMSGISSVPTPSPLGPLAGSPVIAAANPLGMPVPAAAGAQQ
T1 sequence (P67870 whole entry partner): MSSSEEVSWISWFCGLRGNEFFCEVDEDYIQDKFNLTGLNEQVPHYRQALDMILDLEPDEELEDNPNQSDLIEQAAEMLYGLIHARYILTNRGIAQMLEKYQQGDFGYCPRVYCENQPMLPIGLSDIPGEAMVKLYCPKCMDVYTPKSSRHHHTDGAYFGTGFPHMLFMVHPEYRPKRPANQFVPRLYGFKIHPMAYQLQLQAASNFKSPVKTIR
Experimental: All materials were provided from a CycLex CK2 kinase assay/inhibitor screening kit (Medical and Biological Laboratories CO., LTD, Nagoya, Japan).
All specimens were prepared in triplicate.
10 μL of a diluted sample was added to a 96-well plate placed on ice.
Three wells having 10 μL of a CK2α positive control (2 unit/μL) were included as a positive control in each analysis method. CK2α was purchased from New England Biolabs (Ipswich, Mass., USA).
A phosphorylation reaction was initiated by adding 90 μL of a phosphorylation reaction buffer to each well, and the 96-well plate was covered with a plate cover. The plate was incubated at 30° C. for 30 minutes. Each well was washed with a washing buffer five times, and it was confirmed whether each well was completely filled. With gentle tapping, a residual washing solution was removed.
100 μL of HRP-conjugated detection antibodies were added to each well, and the plate was covered with a plate cover. While the plate was incubated at room temperature (25 to 30° C.) for 30 minutes, the remaining HRP-conjugated detection antibodies after use were removed. Each well was washed five times, and the residual washing buffer was removed with gentle tapping. […]
Absorbance at dual wavelengths of 450/540 nm was measured for each well using Cytation 5. Data was analyzed.

Fas mRNA = test: qRT-PCR Fas mRNA level in steatosis-induced Huh-7 cells; assay type: cell-based, Human; settings: steatosis-induced (OA/PA) Huh-7 cells; 10 μM; 24 hours
Experimental: as §1, §2, §3, §4, §5, §6, §7, §8

Srebp1c mRNA = test: qRT-PCR Srebp1c mRNA level in steatosis-induced Huh-7 cells; assay type: cell-based, Human; settings: steatosis-induced (OA/PA) Huh-7 cells; 10 μM; 24 hours
Experimental: as §1, §2, §3, §4, §5, §6, §7, §8

For `CSc1ccc(/C=C/C=C/C(=O)N2CCCCC2)cc1` [YU2014, (2E,4E)-5-(4-(methylthio)phenyl)-1-(piperidine-1-yl)penta-2,4-dien-1-one], the “Pparα mRNA level (FIG. 10)” value (Pparα mRNA) was “hardly increased; also recorded: no effect”, the “CK2 activity (FIG. 21)” value (CK2) was “did not have a CK2 activity reducing effect” and the “Fas mRNA level (FIG. 13)” value (Fas mRNA) was “reduce”. The “Srebp1c mRNA level (FIG. 14)” value (Srebp1c mRNA) was “reduce”.
